Reference: patent US12599666B2, “Photolytic compounds and triplet-triplet annihilation mediated photolysis” (University of Massachusetts, priority 2019, dated 2026)
Where two headings read alike, the source gives them in different places.

Legend:
[1] = Photocleavage quantum yield / photolytic quantum efficiency calculation
Source text: We compared photolytic quantum efficiency of the widely used PPG of Cou by using the UCNPs as phototransducer.

[2] = PPGs; from the literature; cited from earlier work
[3] = cited from earlier work
[4] = Photophysical parameters of Sen and PPGs (UV-vis absorption, emission, energy levels); assay type: physicochemical; set-up: λabs maximum absorption wavelength / λem maximum emission wavelength: unit not given here; conditions: for λabs maximum absorption wavelength / λem maximum emission wavelength / ξ molar extinction coefficient: in toluene, 10 μM; for T1 triplet excited state: photosensitizers (Sen), from maximum phosphorescence emission
Procedure: Characterization: ^1H NMR spectra were recorded with a Bruker 500 MHz spectrometer. UV-Vis spectra were recorded on an Agilent Cary-5 spectrophotometer. Steady-state fluorescence spectra were measured on a HITACHI F-7000 spectrometer. […] The sample for TEM measurement was prepared by dropping the solution onto a carbon-coated copper grid following negative staining with 2.0% (w/v) phosphotungstic acid. The particle size and size distribution were measured by using dynamic light scattering (DLS) on a Malvern Nano-ZS particle size analyzer, excitation wavelength 532 nm. All samples in the Stern-Volmer quenching plots experiments were deaerated with argon for ca. 15 min before measurement and the gas flow was maintained during the measurements. For the TTA upconversion spectra measurement, the diode pumped solid-state laser (650 nm, continues wave, CW, Hi-Teach company, China) was used as the excitation light source and a modified spectrofluorometer was used to record the upconversion spectra. For the prodrug photolytic experiment, an All LED (Mightex Company) was used as the excitation light source.
From the absorption and emission spectra of Sen and PPGs, the triplet and singlet energy levels of PPG and Sen can be calculated. The maximum emission wavelength of phosphorescence is the triplet excited state energy level (T1) of the Sen. The maximum emission wavelength of fluorescence is the singlet excited state energy level (S1) of the PPGs. Moreover, according to the literature, we know the triplet excited energy levels of PPGs. The detail information is always in […]

[5] = Photolytic molecule experiment: TTAP photolytic reaction in solution under LED, HPLC yield; assay type: physicochemical
Procedure: Photolytic molecule experiment: The NIR LED (720 nm), far red LED (650 nm), green LED (530 nm), blue LED (476 nm) and deep blue (455 nm) were used for photolytic reactions. […] Then, the solution was excited with a LED (20 mW/cm^2) at 37° C. After the photolytic reaction, the raw product was dried and re-dissolved in CH3CN/H2O=(2/1, v/v) and HPLC was used to analyze the yield of product.

[6] = UCNPs as photo transducers, 570 mW cm^−2, λ = 980 nm
[7] = One photon: 120 mW/cm^2, λ > 400 nm
[8] = PtOEP, green LED light (20 mW/cm^2, 532 nm)
[9] = PdTPBP, far-red LED light (20 mW/cm^2, 650 nm)
[10] = PtTNP, NIR LED light (20 mW/cm^2, 720 nm, 1 h)

O=c1ccc2ccccc2o1 [Coumarin, coumarin]
Overall photocleavage quantum yield; η (upconversion) [1, 6]: <0.02873 | T1 triplet excited state [2]: 2.18 eV | Photocleavage quantum yield [3, 7]: 0.13 | Photolytic efficiency (ε × Φ) [3, 7]: 806 | Photocleavage quantum yield [3, 6]: 0.13

[Pd+2].c1ccc(-c2c3nc(c(-c4ccccc4)c4[n-]c(c(-c5ccccc5)c5nc(c(-c6ccccc6)c6[n-]c2c2ccccc62)-c2ccccc2-5)c2ccccc42)-c2ccccc2-3)cc1 [PdTPBP, meso-tetraphenyltetrabenzoporphine palladium complex]
λabs maximum absorption wavelength [4]: 630 | λem maximum emission wavelength [4]: 790 | ξ molar extinction coefficient [4]: 11.0 10^4 M^−1 cm^−1 | T1 triplet excited state [4]: 1.55 eV

c1cc2cccc3c4cccc5cccc(c(c1)c23)c54 [Perylene, perylene]
Overall photocleavage quantum yield ([1]; TTAP, 20 mW/cm^2, λ = 650 nm): 12400 | T1 triplet excited state [2]: 1.52 eV | Photocleavage quantum yield ([3]; 110 mW/cm^2 Hg lamp, >410 nm): 0.093 | Photolytic efficiency (ε × Φ) ([3]; 110 mW/cm^2 Hg lamp, >410 nm): 3627 | Photocleavage quantum yield ([3]; 125 WHg lamp, ≥410 nm): 0.093 | Photolytic efficiency (ε × Φ) ([3]; 125 WHg lamp, ≥410 nm): 3627 | Photocleavage quantum yield ([3]; TTAP, 20 mW/cm^2, λ = 650 nm): 0.093

CCC1=C(CC)c2cc3[n-]c(cc4nc(cc5[n-]c(cc1n2)c(CC)c5CC)C(CC)=C4CC)c(CC)c3CC.[Pt+2] [PtOEP, platinum octaethylporphyrin]
λabs maximum absorption wavelength [4]: 533 | λem maximum emission wavelength [4]: 647 | ξ molar extinction coefficient [4]: 7.0 10^4 M^−1 cm^−1 | T1 triplet excited state [4]: 1.92 eV

CC(C)COC(=O)OCc1c2ccccc2cc2ccccc12 [compound 3]
photolytic yield [5, 8]: 72.3%

CCCCNC(=O)OCc1c2ccccc2cc2ccccc12 [compound 4]
photolytic yield [5, 8]: 51.0%

CC(C)(C)OC(=O)NCC(=O)OCc1c2ccccc2cc2ccccc12 [compound 5]
photolytic yield [5, 8]: 58.4%

CC(C)COC(=O)OCc1ccc2c3cccc4cccc(c5cccc1c52)c43 [compound 9]
photolytic yield [5, 9]: 65.3% | photolytic yield [5, 10]: 27.8%

CCCCNC(=O)OCc1ccc2c3cccc4cccc(c5cccc1c52)c43 [compound 10]
photolytic yield [5, 9]: 52.4% | photolytic yield [5, 10]: 29.3%

CC(C)(C)OC(=O)NCC(=O)OCc1ccc2c3cccc4cccc(c5cccc1c52)c43 [compound 12]
photolytic yield [5, 9]: 89.2% | photolytic yield [5, 10]: 29.6%

CC(C)(C)OC(=O)N[C@@H](CSSC(C)(C)C)C(=O)OCc1ccc2c3cccc4cccc(c5cccc1c52)c43 [compound 14]
photolytic yield [5, 9]: 81.2% | photolytic yield [5, 10]: 23.3%

COc1ccc2cc(C(C)C(=O)OCc3ccc4c5cccc6cccc(c7cccc3c74)c65)ccc2c1 (stereo not drawn) [compound 16]
photolytic yield [5, 9]: 78.5% | photolytic yield [5, 10]: 17.4%

COc1ccc2c(c1)c(CC(=O)OCc1ccc3c4cccc5cccc(c6cccc1c63)c54)c(C)n2C(=O)c1ccc(Cl)cc1 [compound 17]
photolytic yield [5, 9]: 51.7% | photolytic yield [5, 10]: 9.2%

CC(C)Cc1ccc(C(C)C(=O)OCc2ccc3c4cccc5cccc(c6cccc2c63)c54)cc1 (stereo not drawn) [compound 18]
photolytic yield [5, 9]: 71.6% | photolytic yield [5, 10]: 19.4%

O=C(CCCc1ccc(N(CCCl)CCCl)cc1)OCc1ccc2c3cccc4cccc(c5cccc1c52)c43 [compound 19]
Yield (HPLC yield) ([5]; Compound 19 only, 720 nm LED, 1 h): No reaction | Yield (HPLC yield) ([5]; Compound 19 only, argon, 720 nm LED, 1 h): No reaction | Yield (HPLC yield) ([5]; Compound 19 only, argon, red light, 2 h): No reaction | Yield (HPLC yield) ([5]; Compound 19 only, red light, 2 h): No reaction | Yield (HPLC yield) ([5]; PdTPBP, air, red light, 2 h): 7 | Yield (HPLC yield) ([5]; PdTPBP, argon, dark, 2 h): No reaction | Yield (HPLC yield) ([5]; PdTPBP, argon, red light, 1 h): 72.8 | Yield (HPLC yield) ([5]; PdTPBP, argon, red light, 2 h): 67.0 | photolytic yield [5, 9]: 72.8% | photolytic yield [5, 10]: 30.4% | Yield (HPLC yield) ([5]; PtTNP, air, 720 nm LED, 1 h): No reaction | Yield (HPLC yield) ([5]; PtTNP, argon, dark, 1 h): No reaction | Yield (HPLC yield) ([5]; PtTNP, argon, 720 nm LED, 1 h): 30.4

anthracene [reference compound]
T1 triplet excited state [2]: 1.77 eV
